Assays:
[1] = tested on: Malassezia furfur; assay: In-vitro effect on microbial strains: population count over 28 days, Malassezia furfur; assay type: cell-based; conditions: for Number of colony-forming strains after: 24 h / Number of colony-forming strains after: 7 days / Number of colony-forming strains after: 14 days / Number of colony-forming strains after: 21 days / Number of colony-forming strains after: 28 days: inoculum 1.5 × 10^4, 22° C.
Procedure: (§1) The samples are prepared under sterile conditions and deposited in microplates (2-ml wells) with the concentrations hereunder. Two analysis controls were carried out: • a positive control corresponding to 0.5% Phenonip®; • a negative control consisting of 0.85% physiological saline solution. Samples and controls are contaminated with three bacterial strains, namely Staphylococcus epidermidis, Corynebacterium xerosis, and Propionobacterium acnes, at a rate of approximately […] to 4.15×10^5 colony-forming units per milliliter, denoted cfu/ml; and a fungal strain, namely Malassezia furfur, at a rate of approximately 1.50×104 to 3.80×10^4 cfu/ml. After contamination, the samples are carefully mixed by suction and discharge cycles in order to ensure a uniform distribution of the microorganism. The whole is incubated at 22° C. during 28 days. The microbial population is sampled and counted at 24 hours and 7, 14, 21 and 28 days for each microbial strain. The contaminated samples are collected and then deposited in serial dilutions in microtiter plates, in the presence of culture medium, which is a saline solution with 0.85% sodium chloride, and a dehydrogenase activity indicator reagent, which is 2,3,5-triphenyltetrazolium chloride (denoted TTC). The results are presented in the following pages with the variation of the microbial population over the 28 days of study, for the tested microbial strain. The measurements of microbial populations in the samples collected at each time, are carried out according to the following microtiter method, for one sample collection. In the 96 wells with a volume of 250 μL of a microtiter plate, 20 μL of the collected sample are diluted by a factor of 10 by dispersion in 180 μL of Letheen broth (Difco, ref. 268110) containing 1.5% of Tween 80 (Sigma, ref. […]) and TTC (Sigma, ref. […]). The microplate is incubated for 48 hours at 32.5° C., and the growth of the microorganisms is monitored by the color change, from colorless to red/pink. The highest reciprocal dilution indicating a growth makes it possible to determine the log number of each microorganism at each time. The measurements of microbial populations taken at each collection time are expressed as colony forming units/ml.

[2] = tested on: Staphylococcus epidermidis; assay: In-vitro effect on microbial strains: population count over 28 days, Staphylococcus epidermidis; assay type: cell-based; conditions: for Number of colony-forming strains after: 24 h / Number of colony-forming strains after: 7 days / Number of colony-forming strains after: 14 days / Number of colony-forming strains after: 21 days / Number of colony-forming strains after: 28 days: inoculum 1.43 × 10^5, 22° C.
Procedure: as §1

[3] = tested on: Propionobacterium acnes; assay: In-vitro effect on microbial strains: population count over 28 days, Propionobacterium acnes; assay type: cell-based; conditions: for Number of colony-forming strains after: 24 h / Number of colony-forming strains after: 7 days / Number of colony-forming strains after: 14 days / Number of colony-forming strains after: 21 days / Number of colony-forming strains after: 28 days: inoculum 3.98 × 10^5, 22° C.
Procedure: as §1

[4] = tested on: Corynebacterium xerosis; assay: In-vitro effect on microbial strains: population count over 28 days, Corynebacterium xerosis; assay type: cell-based; conditions: for Number of colony-forming strains after: 24 h / Number of colony-forming strains after: 7 days / Number of colony-forming strains after: 14 days / Number of colony-forming strains after: 21 days / Number of colony-forming strains after: 28 days: inoculum 3.2 × 10^5, 22° C.
Procedure: as §1

[5] = tested on: Candida albicans; conditions: U.S. Pat. No. 9,295,626, col. 27, Table 2; cited from earlier work
[6] = tested on: Aspergillus brasiliensis; conditions: U.S. Pat. No. 9,295,626, col. 27, Table 2; cited from earlier work
[7] = tested on: Staphylococcus aureus; conditions: U.S. Pat. No. 9,295,626, col. 27, Table 2; cited from earlier work
[8] = after 24 hours, doses 1%, 5%, 9%
[9] = after 24 hours, the three doses tested (1%, 5%, 9%)

SMILES: O[C@@H]1CO[C@H]2[C@@H]1OC[C@@H]2O [isosorbide, 1,4-3,6-dianhydrosorbitol]
- colony-forming strains observed [1, 8]: no colony-forming strain is observed
- Number of colony-forming strains after: 24 h ([1]; isosorbide dose 1%): 0 colony forming units/ml
- Number of colony-forming strains after: 7 days ([1]; isosorbide dose 1%): 0 colony forming units/ml
- Number of colony-forming strains after: 14 days ([1]; isosorbide dose 1%): 0 colony forming units/ml
- Number of colony-forming strains after: 21 days ([1]; isosorbide dose 1%): 0 colony forming units/ml
- Number of colony-forming strains after: 28 days ([1]; isosorbide dose 1%): 0 colony forming units/ml
- Number of colony-forming strains after: 24 h ([1]; isosorbide dose 5%): 0 colony forming units/ml
- Number of colony-forming strains after: 7 days ([1]; isosorbide dose 5%): 0 colony forming units/ml
- Number of colony-forming strains after: 14 days ([1]; isosorbide dose 5%): 0 colony forming units/ml
- Number of colony-forming strains after: 21 days ([1]; isosorbide dose 5%): 0 colony forming units/ml
- Number of colony-forming strains after: 28 days ([1]; isosorbide dose 5%): 0 colony forming units/ml
- Number of colony-forming strains after: 24 h ([1]; isosorbide dose 9%): 0 colony forming units/ml
- Number of colony-forming strains after: 7 days ([1]; isosorbide dose 9%): 0 colony forming units/ml
- Number of colony-forming strains after: 14 days ([1]; isosorbide dose 9%): 0 colony forming units/ml
- Number of colony-forming strains after: 21 days ([1]; isosorbide dose 9%): 0 colony forming units/ml
- Number of colony-forming strains after: 28 days ([1]; isosorbide dose 9%): 0 colony forming units/ml
- effect on the strain in words ([1]; summary of Table 2): bactericide
- reduction of the number of colony-forming strains [2, 9]: at least 2 log 10
- colony-forming strains observed ([2]; after 7 days): no more colony-forming strains
- Number of colony-forming strains after: 24 h ([2]; isosorbide dose 1%): 4 × 10^3 colony forming units/ml
- Number of colony-forming strains after: 7 days ([2]; isosorbide dose 1%): 0 colony forming units/ml
- Number of colony-forming strains after: 14 days ([2]; isosorbide dose 1%): 0 colony forming units/ml
- Number of colony-forming strains after: 21 days ([2]; isosorbide dose 1%): 0 colony forming units/ml
- Number of colony-forming strains after: 28 days ([2]; isosorbide dose 1%): 0 colony forming units/ml
- Number of colony-forming strains after: 24 h ([2]; isosorbide dose 5%): 1 × 10^3 colony forming units/ml
- Number of colony-forming strains after: 7 days ([2]; isosorbide dose 5%): 0 colony forming units/ml
- Number of colony-forming strains after: 14 days ([2]; isosorbide dose 5%): 0 colony forming units/ml
- Number of colony-forming strains after: 21 days ([2]; isosorbide dose 5%): 0 colony forming units/ml
- Number of colony-forming strains after: 28 days ([2]; isosorbide dose 5%): 0 colony forming units/ml
- Number of colony-forming strains after: 24 h ([2]; isosorbide dose 9%): 7 × 10^2 colony forming units/ml
- Number of colony-forming strains after: 7 days ([2]; isosorbide dose 9%): 0 colony forming units/ml
- Number of colony-forming strains after: 14 days ([2]; isosorbide dose 9%): 0 colony forming units/ml
- Number of colony-forming strains after: 21 days ([2]; isosorbide dose 9%): 0 colony forming units/ml
- Number of colony-forming strains after: 28 days ([2]; isosorbide dose 9%): 0 colony forming units/ml
- effect on the strain in words ([2]; summary of Table 4): weak bactericide
- colony-forming strains observed [3, 8]: no colony-forming strain is observed
- Number of colony-forming strains after: 24 h ([3]; isosorbide dose 1%): 0 colony forming units/ml
- Number of colony-forming strains after: 7 days ([3]; isosorbide dose 1%): 0 colony forming units/ml
- Number of colony-forming strains after: 14 days ([3]; isosorbide dose 1%): 0 colony forming units/ml
- Number of colony-forming strains after: 21 days ([3]; isosorbide dose 1%): 0 colony forming units/ml
- Number of colony-forming strains after: 28 days ([3]; isosorbide dose 1%): 0 colony forming units/ml
- Number of colony-forming strains after: 24 h ([3]; isosorbide dose 5%): 0 colony forming units/ml
- Number of colony-forming strains after: 7 days ([3]; isosorbide dose 5%): 0 colony forming units/ml
- Number of colony-forming strains after: 14 days ([3]; isosorbide dose 5%): 0 colony forming units/ml
- Number of colony-forming strains after: 21 days ([3]; isosorbide dose 5%): 0 colony forming units/ml
- Number of colony-forming strains after: 28 days ([3]; isosorbide dose 5%): 0 colony forming units/ml
- Number of colony-forming strains after: 24 h ([3]; isosorbide dose 9%): 0 colony forming units/ml
- Number of colony-forming strains after: 7 days ([3]; isosorbide dose 9%): 0 colony forming units/ml
- Number of colony-forming strains after: 14 days ([3]; isosorbide dose 9%): 0 colony forming units/ml
- Number of colony-forming strains after: 21 days ([3]; isosorbide dose 9%): 0 colony forming units/ml
- Number of colony-forming strains after: 28 days ([3]; isosorbide dose 9%): 0 colony forming units/ml
- effect on the strain in words ([3]; summary of Table 1): bactericide
- reduction of the number of colony-forming strains [4, 9]: at least 3 log 10
- colony-forming strains observed ([4]; after 7 days): no more colony-forming strains
- Number of colony-forming strains after: 24 h ([4]; isosorbide dose 1%): 4 × 10^2 colony forming units/ml
- Number of colony-forming strains after: 7 days ([4]; isosorbide dose 1%): 0 colony forming units/ml
- Number of colony-forming strains after: 14 days ([4]; isosorbide dose 1%): 0 colony forming units/ml
- Number of colony-forming strains after: 21 days ([4]; isosorbide dose 1%): 0 colony forming units/ml
- Number of colony-forming strains after: 28 days ([4]; isosorbide dose 1%): 0 colony forming units/ml
- Number of colony-forming strains after: 24 h ([4]; isosorbide dose 5%): 1 × 10^2 colony forming units/ml
- Number of colony-forming strains after: 7 days ([4]; isosorbide dose 5%): 0 colony forming units/ml
- Number of colony-forming strains after: 14 days ([4]; isosorbide dose 5%): 0 colony forming units/ml
- Number of colony-forming strains after: 21 days ([4]; isosorbide dose 5%): 0 colony forming units/ml
- Number of colony-forming strains after: 28 days ([4]; isosorbide dose 5%): 0 colony forming units/ml
- Number of colony-forming strains after: 7 days ([4]; isosorbide dose 9%): 0 colony forming units/ml
- Number of colony-forming strains after: 14 days ([4]; isosorbide dose 9%): 0 colony forming units/ml
- Number of colony-forming strains after: 21 days ([4]; isosorbide dose 9%): 0 colony forming units/ml
- Number of colony-forming strains after: 28 days ([4]; isosorbide dose 9%): 0 colony forming units/ml
- effect on the strain in words ([4]; summary of Table 3): moderate bactericide
- minimum inhibitory concentration [5]: 10%
- minimum inhibitory concentration [6]: 10%
- minimum inhibitory concentration [7]: 10%

— patent US20220168201A1, “USE OF DIANHYDROHEXITOL FOR PRESERVING COSMETIC PREPARATIONS” (ROQUETTE FRERES, priority 2019, published 2022)
